From patent publication US11999727B2 (Tango Therapeutics, Inc., priority 2020, dated 2024) come the findings set out here.

SMILES strings stand for the structures.

Assay [1] concerns HAP1 MTAP-deleted cell line. The experiment in a line: Viability assay, MTAP-deleted cell line. It counts as cell-based. To be noted: Homo sapiens, read-out: HAP1 MTAP deleted viability. An excerpt: Table 1 additionally indicates IC50 values in a viability assay for the MTAP-deleted cell line (column 10), indicating the effect of treatment with compound on cell survival.
The test system of assay [2] is HAP1 MTAP-deleted cell line. As to the kind of experiment: SDMA in-cell western assay, HAP1 MTAP-deleted. The conditions noted are these: for IC50: Homo sapiens, HAP1, SDMA in-cell western, HAP1 MTAP-deleted; for MTAP intact/deleted ratio: SDMA in-cell western. It counts as cell-based. Summed up:
(§1)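 IC50 values come from SDMA signal quantified by in-cell western in two HAP1 lines, one with native MTAP levels and one lacking MTAP.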

For assay [3], the target named is T1, PRMT5 (Homo sapiens, UniProt O14744).
T1 construct: purchased Viva (custom protein)
T1 sequence (O14744 whole entry): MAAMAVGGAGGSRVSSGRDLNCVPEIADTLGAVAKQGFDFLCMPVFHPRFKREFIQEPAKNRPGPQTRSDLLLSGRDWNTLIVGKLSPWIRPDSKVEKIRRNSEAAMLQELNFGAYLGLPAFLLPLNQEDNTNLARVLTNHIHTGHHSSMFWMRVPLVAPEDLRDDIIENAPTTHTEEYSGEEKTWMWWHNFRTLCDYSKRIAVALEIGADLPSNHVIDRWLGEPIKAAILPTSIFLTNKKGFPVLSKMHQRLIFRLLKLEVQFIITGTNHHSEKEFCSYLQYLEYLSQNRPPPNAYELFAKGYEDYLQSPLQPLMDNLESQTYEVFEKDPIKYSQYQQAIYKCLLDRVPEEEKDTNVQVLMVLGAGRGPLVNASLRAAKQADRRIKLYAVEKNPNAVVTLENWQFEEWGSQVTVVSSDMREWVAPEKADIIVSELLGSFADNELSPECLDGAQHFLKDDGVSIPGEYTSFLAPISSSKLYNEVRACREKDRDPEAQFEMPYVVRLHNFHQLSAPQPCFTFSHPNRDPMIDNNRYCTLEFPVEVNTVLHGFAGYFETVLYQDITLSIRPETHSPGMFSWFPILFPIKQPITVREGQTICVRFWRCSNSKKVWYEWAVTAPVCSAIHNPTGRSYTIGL
T1 sequence (Q9BQA1 whole entry partner): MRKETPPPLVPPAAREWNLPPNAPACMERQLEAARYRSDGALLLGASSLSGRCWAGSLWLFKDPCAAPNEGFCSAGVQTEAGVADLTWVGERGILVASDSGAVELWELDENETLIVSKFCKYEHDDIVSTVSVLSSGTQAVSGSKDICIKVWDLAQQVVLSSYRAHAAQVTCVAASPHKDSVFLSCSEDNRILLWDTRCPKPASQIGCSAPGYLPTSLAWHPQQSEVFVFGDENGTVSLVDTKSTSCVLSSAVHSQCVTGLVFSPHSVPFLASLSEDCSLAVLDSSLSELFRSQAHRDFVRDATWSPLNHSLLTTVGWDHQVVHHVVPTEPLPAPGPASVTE
As to the kind of experiment: PRMT5 biochemical IC50 assay with no cofactor. The conditions noted are these: PRMT5, no cofactor. An excerpt: Table 1 indicates IC50 values (μM) against PRMT5 for exemplary compounds in the presence of SAM as cofactor, with no cofactor, and with MTA as cofactor, respectively (columns 4-6). […] Ki values can be calculated from the IC50 values as described in the Examples section. As detailed in the Examples section, for the assay performed in the presence of SAM, IC50=Ki×1.5 (Ki=IC50/1.5).

Assay [4] concerns the target T1, PRMT5. As to the kind of experiment: PRMT5 biochemical IC50 assay with MTA as cofactor. To be noted: PRMT5, MTA as cofactor; read-out: MTA IC50.
Assay [5] has as its target T1, PRMT5. The experiment in a line: PRMT5 biochemical IC50 assay with SAM as cofactor. The conditions noted are these: PRMT5, SAM as cofactor; read-out: SAM IC50.
Assay [6] concerns HAP1 MTAP-intact cell line. The experiment in a line: SDMA in-cell western assay, HAP1 MTAP-intact. To be noted: Homo sapiens, HAP1, SDMA in-cell western, HAP1 MTAP-intact; read-out: MTAP HAP1 intact IC50. In kind it is cell-based. The method in brief: as §1
The mark [7] stands for this setting: HAP1, viability, HAP1 MTAP-deleted cell line.
The mark [8] stands for this setting: read-out: HAP 1 MTAP deleted IC50.
Setting [9] is: IC50 ratio HAP1 MTAP-intact / HAP1 MTAP-deleted.
[10] abbreviates: read-out: No Cofactor/ rel IC50.
Setting [11] is: HAP1, viability assay, HAP1 MTAP-deleted.
The mark [12] stands for this setting: read-out: HAP1 MTAP deleted IC50.
The mark [13] stands for this setting: HAP1, viability assay, MTAP-deleted cell line.
Setting [14] is: IC50 ratio HAP1 MTAP-intact vs HAP1 MTAP-deleted.

Turning to `C[C@@H]1CN(C(=O)C(=O)Nc2cnc(N)c(C3CC3)c2)[C@@H](c2ccc3scnc3c2)CC1(F)F` (single isomer, unassigned) [Compound 1307], the IC50 in assay [1] (setting [7]) is below 1 µM; in assay [2] (setting [8]) it was below 0.1 µM; on PRMT5 [3] (setting [10]), 0.05 to 0.5 µM; at PRMT5 [4], 0.05 to 0.5 µM; at PRMT5 [5] it was above 0.5 µM; in assay [6], above 1 µM. The “MTAP intact/deleted ratio” value in assay [2] (setting [9]) is “A (an IC50 ratio greater than or equal to 10 fold)”.

Turning to `Cc1cc(NC(=O)C(=O)N2C[C@H](C)CC[C@H]2c2ccc3[nH]c(=O)ccc3c2)cnc1N` (single isomer, unassigned) [Compound 763], the IC50 is above 10 µM in assay [1] (setting [11]); above 1 µM in assay [2] (setting [12]); above 0.5 µM at PRMT5 [3] (read-out: No Cofactor/rel IC50); above 0.5 µM at PRMT5 [4]; above 0.5 µM on PRMT5 [5]; above 1 µM in assay [6]. The MTAP intact/deleted ratio result in assay [2] (setting [9]) was “B (an IC50 ratio greater than or equal to 3 fold but lower than 10 fold)”.

Regarding `CC(=O)Nc1ccc([C@@H]2CC[C@@H](C)CN2C(=O)C(=O)Nc2cncc(C(N)=O)c2)cc1` (single isomer, unassigned) [Compound 451], the IC50 in assay [1] (setting [13]) is 1 to 10 µM; in assay [2] (setting [12]) it was below 0.1 µM; at PRMT5 [3] (read-out: No Cofactor/rel IC50), 0.05 to 0.5 µM; at PRMT5 [4], below 0.05 µM; on PRMT5 [5], 0.05 to 0.5 µM; in assay [6], above 1 µM. The MTAP intact/deleted ratio entry in assay [2] (setting [9]) is given as “A (an IC50 ratio greater than or equal to 10 fold)”.

For the compound `C[C@@H]1CC[C@@H](C2CCC2)N(C(=O)C(=O)Nc2cncc(C(N)=O)c2)C1` (single isomer, unassigned) [Compound 216], the IC50 was above 10 µM in assay [1] (setting [13]); above 1 µM in assay [2] (setting [12]); above 0.5 µM at PRMT5 [3] (read-out: No Cofactor/rel IC50); above 0.5 µM on PRMT5 [4]; above 0.5 µM on PRMT5 [5]; above 1 µM in assay [6]. Also, the MTAP intact/deleted ratio result in assay [2] (setting [9]) is reported as “C (an IC50 ratio of less than 3 fold)”.

For `CCc1cc(NC(=O)C(=O)N2C[C@H](C)CC[C@H]2c2ccc(NC(C)=O)nc2)cnc1N` (single isomer, unassigned) [Compound 921], the IC50 in assay [1] (setting [13]) was above 10 µM; in assay [2] (setting [8]) it was above 1 µM; at PRMT5 [3] (read-out: No Cofactor/rel IC50), above 0.5 µM; on PRMT5 [4] it was above 0.5 µM; at PRMT5 [5] it was above 0.5 µM; in assay [6], above 1 µM. Further, the MTAP intact/deleted ratio entry in assay [2] (setting [9]) is “B (an IC50 ratio greater than or equal to 3 fold but lower than 10 fold)”.

As to `CC(=O)Oc1ccc([C@H]2CC[C@H](C)CN2C(=O)C(=O)Nc2cnc(N)c(C)c2)cc1` (single isomer, unassigned) [Compound 597], the IC50 is above 10 µM in assay [1] (HAP1, viability IC50, MTAP-deleted cell line); above 1 µM in assay [2] (setting [8]); above 0.5 µM on PRMT5 [3] (read-out: No Cofactor/rel IC50); above 0.5 µM at PRMT5 [4]; above 0.5 µM at PRMT5 [5]; above 1 µM in assay [6]. In assay [2] (setting [9]), the MTAP intact/deleted ratio result was “B (an IC50 ratio greater than or equal to 3 fold but lower than 10 fold)”.

Turning to `CCc1cc(NC(=O)C(=O)N2C[C@@H](C)CC[C@@H]2c2ccc3nn([C@H]4CCCN(C)C4)cc3c2)cnc1N` (single isomer, unassigned) [Compound 1271], the IC50 was below 1 µM in assay [1] (setting [7]); below 0.1 µM in assay [2] (setting [8]); below 0.05 µM at PRMT5 [3] (setting [10]); below 0.05 µM on PRMT5 [4]; 0.05 to 0.5 µM on PRMT5 [5]; below 0.1 µM in assay [6]. In assay [2] (setting [9]), the “MTAP intact/deleted ratio” value is listed as “B (an IC50 ratio greater than or equal to 3 fold but lower than 10 fold)”.

For the compound `COc1ncc(NC(=O)C(=O)N2C[C@@H](C)[C@@H](OC)C[C@@H]2c2ccc3scnc3c2)cc1C(N)=O` (single isomer, unassigned) [Compound 1344], the IC50 in assay [1] (setting [7]) was 1 to 10 µM; in assay [2] (setting [8]) it was 0.1 to 1 µM; on PRMT5 [3] (setting [10]), above 0.5 µM; on PRMT5 [4] it was above 0.5 µM; at PRMT5 [5], above 0.5 µM; in assay [6], above 1 µM.

For `COc1ncc(NC(=O)C(=O)N2C[C@H](C)CC[C@H]2c2cc(Cl)cc(Cl)c2)cc1C(N)=O` (single isomer, unassigned) [Compound 965], the IC50 in assay [1] (setting [13]) is above 10 µM; in assay [2] (setting [8]), above 1 µM; at PRMT5 [3] (read-out: No Cofactor/rel IC50) it was above 0.5 µM; at PRMT5 [4] it was above 0.5 µM; at PRMT5 [5] it was above 0.5 µM; in assay [6], above 1 µM. For the same compound, in assay [2] (setting [9]), the MTAP intact/deleted ratio entry is on record as “B (an IC50 ratio greater than or equal to 3 fold but lower than 10 fold)”.

In the case of `COc1ncc(NC(=O)C(=O)N2C[C@H](C)CC[C@H]2c2cscn2)cc1C(N)=O` (single isomer, unassigned) [Compound 1042], the IC50 is 1 to 10 µM in assay [1] (setting [13]); below 0.1 µM in assay [2] (setting [8]); 0.05 to 0.5 µM on PRMT5 [3] (read-out: No Cofactor/rel IC50); below 0.05 µM at PRMT5 [4]; 0.05 to 0.5 µM at PRMT5 [5]; above 1 µM in assay [6]. Moreover, in assay [2] (setting [9]), the MTAP intact/deleted ratio result was “A (an IC50 ratio greater than or equal to 10 fold)”.

Take `Cc1cc(NC(=O)C(=O)N2C[C@H](C)CC[C@H]2c2ccc(CCN(C)C)cc2)cnc1N` (racemic) [Compound 1233, N-(6-amino-5-methyl-3-pyridyl)-2-[2-[4-[2-(dimethylamino)ethyl]phenyl]-5-methyl-1-piperidyl]-2-oxo-acetamide]: the IC50 in assay [1] (setting [13]) is below 1 µM; in assay [2] (setting [12]), below 0.1 µM; at PRMT5 [3] (read-out: No Cofactor/rel IC50) it was 0.05 to 0.5 µM; on PRMT5 [4], below 0.05 µM; at PRMT5 [5], 0.05 to 0.5 µM; in assay [6], 0.1 to 1 µM. In addition, in assay [2] (setting [14]), the MTAP intact/deleted ratio result is given as “B (an IC50 ratio greater than or equal to 3 fold but lower than 10 fold)”.

For the compound `C[C@@H]1CCN(C(=O)C(=O)Nc2cncc(C(N)=O)c2)[C@H](c2ccccc2)C1` (racemic) [Compound 442, 5-(2-(4-methyl-2-phenylpiperidin-1-yl)-2-oxoacetamido)nicotinamide], the IC50 in assay [1] (setting [13]) was 1 to 10 µM; in assay [2] (setting [12]), 0.1 to 1 µM; at PRMT5 [3] (read-out: No Cofactor/rel IC50), 0.05 to 0.5 µM; on PRMT5 [4] it was 0.05 to 0.5 µM; at PRMT5 [5], 0.05 to 0.5 µM; in assay [6] it was above 1 µM. The MTAP intact/deleted ratio entry in assay [2] (setting [9]) is listed as “A (an IC50 ratio greater than or equal to 10 fold)”.

Regarding `Cc1cc(NC(=O)C(=O)N2C[C@H](C)CC[C@H]2c2ccc(-c3nccs3)cn2)cnc1N` (racemic) [Compound 991], the IC50 is 1 to 10 µM in assay [1] (setting [13]); 0.1 to 1 µM in assay [2] (setting [8]); 0.05 to 0.5 µM on PRMT5 [3] (read-out: No Cofactor/rel IC50); 0.05 to 0.5 µM on PRMT5 [4]; 0.05 to 0.5 µM on PRMT5 [5]; above 1 µM in assay [6]. Also, the MTAP intact/deleted ratio entry in assay [2] (setting [9]) was “C (an IC50 ratio of less than 3 fold)”.

As for `Cc1cc(NC(=O)C(=O)N2C[C@@H](C)[C@@H](OC(F)(F)F)C[C@@H]2c2ccc(F)cc2)cnc1N` (single isomer, unassigned) [Compound 1213], the IC50 in assay [1] (setting [13]) is below 1 µM; in assay [2] (setting [12]), below 0.1 µM; on PRMT5 [3] (read-out: No Cofactor/rel IC50) it was below 0.05 µM; at PRMT5 [4] it was below 0.05 µM; on PRMT5 [5] it was 0.05 to 0.5 µM; in assay [6], 0.1 to 1 µM. In addition, the MTAP intact/deleted ratio entry in assay [2] (setting [14]) is “A (an IC50 ratio greater than or equal to 10 fold)”.

For the compound `CNC(=O)c1ccc([C@H]2CC[C@H](C)CN2C(=O)C(=O)Nc2cnc(OC)c(C(N)=O)c2)s1` (single isomer, unassigned) [Compound 833], the IC50 in assay [1] (setting [11]) was below 1 µM; in assay [2] (setting [12]), below 0.1 µM; at PRMT5 [3] (read-out: No Cofactor/rel IC50) it was 0.05 to 0.5 µM; on PRMT5 [4], below 0.05 µM; on PRMT5 [5] it was 0.05 to 0.5 µM; in assay [6], 0.1 to 1 µM. Further, the MTAP intact/deleted ratio entry in assay [2] (setting [9]) is given as “A (an IC50 ratio greater than or equal to 10 fold)”.

As to `Cc1cc(NC(=O)C(=O)N2CCCCC2C(C)C)cnc1N` (racemic) [Compound 135, N-(6-amino-5-methyl-3-pyridyl)-2-(2-isopropyl-1-piperidyl)-2-oxo-acetamide], the IC50 in assay [1] (setting [13]) is above 10 µM; in assay [2] (setting [8]), 0.1 to 1 µM; on PRMT5 [3] (setting [10]), 0.05 to 0.5 µM; on PRMT5 [4], below 0.05 µM; at PRMT5 [5], 0.05 to 0.5 µM; in assay [6] it was above 1 µM. The “MTAP intact/deleted ratio” value in assay [2] (setting [9]) is given as “A (an IC50 ratio greater than or equal to 10 fold)”.

With `Cc1cc(NC(=O)C(=O)N2C[C@@H](C)CC[C@@H]2c2ccc3[nH]ncc3n2)cnc1N` (single isomer, unassigned) [Compound 780], the IC50 in assay [1] (setting [11]) was above 10 µM; in assay [2] (setting [12]), 0.1 to 1 µM; at PRMT5 [3] (read-out: No Cofactor/rel IC50), above 0.5 µM; at PRMT5 [4] it was above 0.5 µM; on PRMT5 [5], above 0.5 µM; in assay [6], above 1 µM. The MTAP intact/deleted ratio entry in assay [2] (setting [9]) is recorded as “A (an IC50 ratio greater than or equal to 10 fold)”.
